In the supplement of paper PMC10307832:

How the values were obtained:
Experiment in all cases: relative viability (nuclei count vs DMSO), 5 days (fraction); higher = more cells survive
NCI-H1666 = test system: NCI-H1666
How it was run: (§1)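 Relative viability is defined as nuclei in treated wells over nuclei in vehicle wells. Duplicate plates were run and medians reported. Lung cancer cell lines in 1536-well plates were dosed by pin tool one day after seeding, with one drug or with a fixed anchor-drug dose plus five library-drug doses (not always all listed) in √10 steps, and nuclei were counted after 5 days.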

NCI-H1915 = test system: NCI-H1915
How it was run: as §1

NCI-H596 = test system: NCI-H596
How it was run: as §1

NCI-H2342 = test system: NCI-H2342
How it was run: as §1

NCI-H23 = test system: NCI-H23
How it was run: as §1

PC-3 [JPC-3] = test system: PC-3 [JPC-3]
How it was run: as §1

NCI-H520 = test system: NCI-H520
How it was run: as §1

NCI-H1437 = test system: NCI-H1437
How it was run: as §1

NCI-H1650 = test system: NCI-H1650
How it was run: as §1

NCI-H460 = test system: NCI-H460
How it was run: as §1

EKVX = test system: EKVX
How it was run: as §1

LCLC-97TM1 = test system: LCLC-97TM1
How it was run: as §1

NCI-H727 = test system: NCI-H727
How it was run: as §1

NCI-H1975 = test system: NCI-H1975
How it was run: as §1

NCI-H322M = test system: NCI-H322M
How it was run: as §1

NCI-H522 = test system: NCI-H522
How it was run: as §1

NCI-H838 = test system: NCI-H838
How it was run: as §1

NCI-H647 = test system: NCI-H647
How it was run: as §1

SK-LU-1 = test system: SK-LU-1
How it was run: as §1

NCI-H358 = test system: NCI-H358
How it was run: as §1

NCI-H441 = test system: NCI-H441
How it was run: as §1

NCI-H661 = test system: NCI-H661
How it was run: as §1

## CCNC(=O)c1noc(-c2cc(C(C)C)c(O)cc2O)c1-c1ccc(CN2CCOCC2)cc1 [Luminespib] + Cc1cc(Nc2cc(N3CCN(C)CC3)nc(Sc3ccc(NC(=O)C4CC4)cc3)n2)n[nH]1 [Tozasertib] (partner 0.1 µM)
NCI-H1666; first compound 0.002 µM
  relative viability: 0.64
NCI-H1666; first compound 0.006325 µM
  relative viability: 0.583
NCI-H1666; first compound 0.02 µM
  relative viability: 0.601
NCI-H1666; first compound 0.06325 µM
  relative viability: 0.732
NCI-H1666; first compound 0.2 µM
  relative viability: 0.538
NCI-H1915; first compound 0.002 µM
  relative viability: 0.449
NCI-H1915; first compound 0.006325 µM
  relative viability: 0.518
NCI-H1915; first compound 0.02 µM
  relative viability: 0.377
NCI-H1915; first compound 0.06325 µM
  relative viability: 0.364
NCI-H1915; first compound 0.2 µM
  relative viability: 0.187
NCI-H596; first compound 0.002 µM
  relative viability: 0.959
NCI-H596; first compound 0.006325 µM
  relative viability: 1.01
NCI-H596; first compound 0.02 µM
  relative viability: 0.804
NCI-H596; first compound 0.06325 µM
  relative viability: 0.876
NCI-H596; first compound 0.2 µM
  relative viability: 0.657
NCI-H2342; first compound 0.002 µM
  relative viability: 0.578
NCI-H2342; first compound 0.006325 µM
  relative viability: 0.576
NCI-H2342; first compound 0.02 µM
  relative viability: 0.361
NCI-H2342; first compound 0.06325 µM
  relative viability: 0.589
NCI-H2342; first compound 0.2 µM
  relative viability: 0.334
NCI-H23; first compound 0.002 µM
  relative viability: 0.333
NCI-H23; first compound 0.006325 µM
  relative viability: 0.351
NCI-H23; first compound 0.02 µM
  relative viability: 0.345
NCI-H23; first compound 0.06325 µM
  relative viability: 0.279
NCI-H23; first compound 0.2 µM
  relative viability: 0.229
PC-3 [JPC-3]; first compound 0.002 µM
  relative viability: 0.892
PC-3 [JPC-3]; first compound 0.006325 µM
  relative viability: 0.845
PC-3 [JPC-3]; first compound 0.02 µM
  relative viability: 0.801
PC-3 [JPC-3]; first compound 0.06325 µM
  relative viability: 0.656
PC-3 [JPC-3]; first compound 0.2 µM
  relative viability: 0.375
NCI-H520; first compound 0.002 µM
  relative viability: 0.404
NCI-H520; first compound 0.006325 µM
  relative viability: 0.449
NCI-H520; first compound 0.02 µM
  relative viability: 0.345
NCI-H520; first compound 0.06325 µM
  relative viability: 0.195
NCI-H520; first compound 0.2 µM
  relative viability: 0.221
NCI-H1437; first compound 0.002 µM
  relative viability: 0.385
NCI-H1437; first compound 0.006325 µM
  relative viability: 0.359
NCI-H1437; first compound 0.02 µM
  relative viability: 0.497
NCI-H1437; first compound 0.06325 µM
  relative viability: 0.508
NCI-H1437; first compound 0.2 µM
  relative viability: 0.238
NCI-H1650; first compound 0.002 µM
  relative viability: 0.412
NCI-H1650; first compound 0.006325 µM
  relative viability: 0.455
NCI-H1650; first compound 0.02 µM
  relative viability: 0.168
NCI-H1650; first compound 0.06325 µM
  relative viability: 0.153
NCI-H1650; first compound 0.2 µM
  relative viability: 0.145
NCI-H460; first compound 0.002 µM
  relative viability: 0.554
NCI-H460; first compound 0.006325 µM
  relative viability: 0.421
NCI-H460; first compound 0.02 µM
  relative viability: 0.597
NCI-H460; first compound 0.06325 µM
  relative viability: 0.0212
NCI-H460; first compound 0.2 µM
  relative viability: 0.0218
EKVX; first compound 0.002 µM
  relative viability: 0.436
EKVX; first compound 0.006325 µM
  relative viability: 0.389
EKVX; first compound 0.06325 µM
  relative viability: 0.346
EKVX; first compound 0.2 µM
  relative viability: 0.165
LCLC-97TM1; first compound 0.002 µM
  relative viability: 0.198
LCLC-97TM1; first compound 0.006325 µM
  relative viability: 0.268
LCLC-97TM1; first compound 0.02 µM
  relative viability: 0.117
LCLC-97TM1; first compound 0.06325 µM
  relative viability: 0.241
LCLC-97TM1; first compound 0.2 µM
  relative viability: 0.214
NCI-H727; first compound 0.002 µM
  relative viability: 0.61
NCI-H727; first compound 0.006325 µM
  relative viability: 0.614
NCI-H727; first compound 0.02 µM
  relative viability: 0.505
NCI-H727; first compound 0.06325 µM
  relative viability: 0.314
NCI-H727; first compound 0.2 µM
  relative viability: 0.291
NCI-H1975; first compound 0.002 µM
  relative viability: 0.759
NCI-H1975; first compound 0.006325 µM
  relative viability: 0.745
NCI-H1975; first compound 0.02 µM
  relative viability: 0.603
NCI-H1975; first compound 0.06325 µM
  relative viability: 0.1
NCI-H1975; first compound 0.2 µM
  relative viability: 0.093
NCI-H322M; first compound 0.002 µM
  relative viability: 0.423
NCI-H322M; first compound 0.006325 µM
  relative viability: 0.458
NCI-H322M; first compound 0.02 µM
  relative viability: 0.422
NCI-H322M; first compound 0.06325 µM
  relative viability: 0.331
NCI-H322M; first compound 0.2 µM
  relative viability: 0.301
NCI-H522; first compound 0.002 µM
  relative viability: 0.621
NCI-H522; first compound 0.006325 µM
  relative viability: 0.545
NCI-H522; first compound 0.02 µM
  relative viability: 0.512
NCI-H522; first compound 0.06325 µM
  relative viability: 0.584
NCI-H522; first compound 0.2 µM
  relative viability: 0.512
NCI-H838; first compound 0.002 µM
  relative viability: 0.272
NCI-H838; first compound 0.006325 µM
  relative viability: 0.215
NCI-H838; first compound 0.02 µM
  relative viability: 0.308
NCI-H838; first compound 0.06325 µM
  relative viability: 0.164
NCI-H838; first compound 0.2 µM
  relative viability: 0.123
NCI-H647; first compound 0.002 µM
  relative viability: 0.299
NCI-H647; first compound 0.006325 µM
  relative viability: 0.274
NCI-H647; first compound 0.02 µM
  relative viability: 0.431
NCI-H647; first compound 0.06325 µM
  relative viability: 0.0669
NCI-H647; first compound 0.2 µM
  relative viability: 0.0766
SK-LU-1; first compound 0.002 µM
  relative viability: 0.373
SK-LU-1; first compound 0.006325 µM
  relative viability: 0.313
SK-LU-1; first compound 0.02 µM
  relative viability: 0.292
SK-LU-1; first compound 0.06325 µM
  relative viability: 0.122
SK-LU-1; first compound 0.2 µM
  relative viability: 0.114
NCI-H358; first compound 0.002 µM
  relative viability: 0.0938
NCI-H358; first compound 0.006325 µM
  relative viability: 0.115
NCI-H358; first compound 0.02 µM
  relative viability: 0.104
NCI-H358; first compound 0.06325 µM
  relative viability: 0.0661
NCI-H358; first compound 0.2 µM
  relative viability: 0.0636
NCI-H441; first compound 0.002 µM
  relative viability: 0.671
NCI-H441; first compound 0.006325 µM
  relative viability: 0.507
NCI-H441; first compound 0.02 µM
  relative viability: 0.647
NCI-H441; first compound 0.06325 µM
  relative viability: 0.186
NCI-H441; first compound 0.2 µM
  relative viability: 0.148
NCI-H661; first compound 0.002 µM
  relative viability: 0.352
NCI-H661; first compound 0.006325 µM
  relative viability: 0.358
NCI-H661; first compound 0.02 µM
  relative viability: 0.348
NCI-H661; first compound 0.06325 µM
  relative viability: 0.357
NCI-H661; first compound 0.2 µM
  relative viability: 0.292
